# From PMC5295395, “Inhibition of PlexA1-mediated brain tumor growth and tumor-associated angiogenesis using a transmembrane domain targeting peptide” (Oncotarget, 2016)
# Experiments:
# Rac1 = test: ELISA-based Rac1 activation assay in U373MG cells; assay type: cell-based, human
# Method: (§1) (C) Rac-1 activation assay in resting condition and after Sema3A-induced Rac-1 activation in U373 MG cells. (D) Western blot analysis of phosphorylated Akt, total Akt and tubulin in U373MG cells treated with the vehicle (LDS 72 μM), Sema3A (100 ng/ml) or Sema3A + MTP-PlexA1 (10^−7 M). The lower panel is showing the quantification of the p-Akt/Akt ratio in the different conditions. (E) MTP-PlexA1 decreases VEGFR-2 phosphorylation induced by VEGF (100 ng/ml) in HUVEC cells.
# PlexA1 is a Rho-GTPase activating protein. Consistently, it has been shown that in response to Sema3A, the Rho-GTPase Rac1 is activated and sequestered at the plasma membrane. […] Moreover, it has been shown that Sema3A inhibits Akt phosphorylation through binding of Rnd1 to PlexA1. […] From these experiments we concluded that MTP-PlexA1 is able to antagonize major signaling pathways of PlexA1 receptor.
# p-Akt/Akt = test: western blot of Akt phosphorylation in U373MG cells; assay type: cell-based, human; conditions: Sema3A 100 ng/ml + MTP-PlexA1 10^−7 M
# Method: as §1, with “HUVEC cells. […]” for “HUVEC cells.”
# in 20 mM sodium acetate (pH 4.5) at a flow rate of 5 μl/ min 10–7 M of MTP-PlexA1 or Vehicle (LDS, 72 µM) during until desired surface densities, measured in response 1 h. Stimulation was done with 100ng/ml Semaphorin 3A units, were reached. […] First antibodies (Rabbit anti-phospho-the elution buffer containing detergent removed non- akt, Rabbit anti-akt, Cell Signaling #4060 and #9272 biotinylated peptides rendering the chip ready for analysis respectively) and mouse anti-tubulin α (Cell Signaling with monomeric biot-MTP-PlexA1. Blank surfaces were #2144) were incubated overnight at 4°C (+ anti-NRP1, used for background corrections. Injections of 30 µl anti-PlexA4 Abcam). […] Images of the immuno-blots cells per well in a 6-well plate and serum starved overnight. were acquired and analyzed thanks to the GENE GNOME Before protein extraction, the cells were treated either with apparatus (Syngene Bio Imaging, UK).
# U118MG-Luc cells = test: MTT proliferation assay, U118MG-Luc; assay type: cell-based, human; conditions: 24 h culture
# [1] = test system: tumor-associated blood vessels (CD31); test: CD31 immunostaining of U118MG-Luc xenograft tumor sections; assay type: in vivo, mouse; conditions: vs control; p = 0.0436, Mann Whitney
# Method: To address the biological consequences of MTP-PlexA1-mediated inhibition of PlexA1 we used the U118MG-Luc glioma cell line genetically engineered to express the luciferase reporter gene. […] Cells were then grafted subcutaneously and tumor growth was monitored every 5 days for a total period of 20 days. […] The quantitative analysis of the cumulated luminescent signal acquired all along the protocol confirmed the strong reduction of tumor development translating into a marked 75% reduction of the averaged luminescent signal at the end point (Figure 6C). […] In order to clarify the mechanism by which MTP-PlexA1 is exerting tumor growth inhibition we collected tumors and analyzed them histologically.
# (B) Representative photographs illustrating the kinetic of tumor growth over 20 days in the two experimental groups. […] (D) Waterfall plot of best response representing the percent change in tumor volume of individual treated animals (grey bars, n = 10) compared to the average tumor volume increased determined in the control group (dark bars, n = 10). […] (F) Representative microphotographs and related quantification of PH3 positive cells in tumor slices (G) Representative microphotographs and related quantification of CD31 positive regions in tumor slices (% CD31 per μm² of tumors).
# [2] = test system: U373MG tumors in nude mice; test: heterotopic U373MG xenograft in nude mice; assay type: in vivo, human cells in mouse
# Method: Supplementary Figure S6: The anti-tumor effect of MTP-PlxA1 was verified in U373MG human GBM line. […]
# (Stable Disease) and 62.5% PR (Partial Response).
# [3] = U373MG, waterfall best response, RECIST criteria
sequence,measurement,setting,value
"TLPAIVGIGGGGGLLLLVIVAVLIAYKRK [MTP-PlexA1, synthetic transmembrane peptide mimicking the TMD of PlexA1]","Rac1 activity, Sema3A-induced",Rac1; Sema3A-induced,significantly inhibited
same,Rac1 activity in the absence of ligand,Rac1; resting condition,not affecting
same,effect on Sema3A-induced inhibition of Akt phosphorylation,p-Akt/Akt,blocked
same,proliferation of U118MG-Luc cells,U118MG-Luc cells,reduced proliferation in a dose dependent manner
same,reduction of tumor-associated blood vessel density (CD31),[1],11.4%
same,change of endpoint tumor weight,"[2]; U373MG flank graft, daily i.p., 10–7 M, p = 0.0044",−44%
same,mice responding to the treatment,[2]; [3],100%
same,mice with PR (Partial Response),[2]; [3],62.5%
same,mice with SD (Stable Disease),[2]; [3],37.5%
